Here are results for three compounds from patent US20150174081A1, “LIQUID PHARMACEUTICAL COMPOSITION COMPRISING NITISINONE” (Swedish Orphan Biovitrum International AB, priority 2011, published 2015).

The nature of data set [1]: Particle size diameter (PSD) of nitisinone before and after air-jet micronization. In kind it is physicochemical. From the text:
A lab-scale air-jet mill, 2 inches qualification model, Sturtevant Inc., was used to micronize nitisinone obtained from the company Bachem, Switzerland. The mill was operated with tangential flow (i.e. the air and drug are fed in the same direction in the milling chamber). The unmilled drug was fed into the mill using a Venturi feed system, Syncron®, Magnet Feeder model F-TO-C, where air was used to draw the feed material into the milling chamber. A product filter bag was affixed to the outlet of the mill, through which the exhausts and the milled drug collects. The milling conditions were set as follows: • Grind air: Dry nitrogen gas • Grind pressure: 90 psi • Feed pressure: 85 psi • Room conditions: Ambient 5 g of the API was passed through the lab-scale micronizer and the resulting material was collected (3.7 g). The material was analyzed for/by particle size diameter (PSD), assay and purity by high performance liquid chromatography (HPLC), x-ray powder diffraction (XRPD), differential scanning calorimetry (DSC) and polarized light microscopy (PLM).

Data set [2] is described as follows: Stability of oxotetrahydroxanthenone solutions, LC-MS. The format is physicochemical. The procedure: The stability study of the main degradation product in Example 6, oxotetrahydroxanthenone, is performed under similar conditions as described in Example 6. Samples of oxotetrahydroxanthenone (OTHX), 81 μg/ml in either citrate buffer pH 3.0 or phosphate buffer pH 6.8, were put on stability at +5° C., +25° C. and +37° C., respectively, for 6 months. The concentrations of OTHX and the secondary degradation products 1,3-cyclohexanedione (CHD) and 4-(trifluoromethyl)salicylic acid (TSA) were analyzed by LC-MS. The results, shown in Table XI, below, are expressed as percent of the initial concentration of OTHX. The mass balance expressed as the total recovery of CHD+OTHX+TSA compared to the initial concentration of OTHX were calculated from MmOTHX/(Mm CHD+MmTSA)×(CHDconc+TSAconc)+OTHXconc expressed in μg/ml where MmOTHX, MmCHD and MmTSA are the molecular masses corresponding to 282, 202 and 206 g/mol, respectively.

[3] abbreviates: Citrate buffer pH 3.0, 5° C., 1.8 months.
Where [4] appears, read: Citrate buffer pH 3.0, 5° C., 3 months.
Setting [5] is: Citrate buffer pH 3.0, 5° C., 6 months.
The mark [6] stands for this setting: Citrate buffer pH 3.0, 25° C., 1.8 months.
[7] abbreviates: Citrate buffer pH 3.0, 25° C., 3 months.
[8] abbreviates: Citrate buffer pH 3.0, 25° C., 6 months.
[9] abbreviates: Citrate buffer pH 3.0, 37° C., 1.8 months.
Setting [10] is: Citrate buffer pH 3.0, 37° C., 3 months.
Where [11] appears, read: Citrate buffer pH 3.0, 37° C., 6 months.
Where [12] appears, read: Phosphate buffer pH 6.8, 5° C., 1.8 months.
Where [13] appears, read: Phosphate buffer pH 6.8, 5° C., 3 months.
[14] abbreviates: Phosphate buffer pH 6.8, 5° C., 6 months.
[15] abbreviates: Phosphate buffer pH 6.8, 25° C., 1.8 months.
The mark [16] stands for this setting: Phosphate buffer pH 6.8, 25° C., 3 months.
[17] abbreviates: Phosphate buffer pH 6.8, 25° C., 6 months.
Where [18] appears, read: Phosphate buffer pH 6.8, 37° C., 1.8 months.
The mark [19] stands for this setting: Phosphate buffer pH 6.8, 37° C., 3 months.
The mark [20] stands for this setting: Phosphate buffer pH 6.8, 37° C., 6 months.

In the case of `O=C1CCCC(=O)C1C(=O)c1ccc(C(F)(F)F)cc1[N+](=O)[O-]` [Micronized material, 2-(2-nitro-4-trifluoromethylbenzoyl)-1,3-cyclohexanedione], in data set [1], the “Particle size diameter d10” value is 0.30 microns, the “Particle size diameter d20” value is 0.47 microns, the “Particle size diameter d50” value amounted to 1.29 microns and the “Particle size diameter d80” value is reported as 2.59 microns. In addition, the “Particle size diameter d90” value in data set [1] worked out at 3.59 microns.
For `O=C1CCCc2oc3cc(C(F)(F)F)ccc3c(=O)c21` [OTHX, 6-(trifluoromethyl)-3,4-dihydro-1H-xanthenene-1,9(2H)-dione], the “Concentration of OTHX” value in data set [2] (setting [3]) was 96.7% of the initial concentration of OTHX; in data set [2] (setting [4]) it was 96.9% of the initial concentration of OTHX; in data set [2] (setting [5]), 91.6% of the initial concentration of OTHX; in data set [2] (setting [6]), 96.7% of the initial concentration of OTHX; in data set [2] (setting [7]), 102.7% of the initial concentration of OTHX; in data set [2] (setting [8]), 92.3% of the initial concentration of OTHX. Also, the “Concentration of OTHX” value in data set [2] (setting [9]) is listed as 97.9% of the initial concentration of OTHX; in data set [2] (setting [10]) it was 97.7% of the initial concentration of OTHX; in data set [2] (setting [11]), 95.3% of the initial concentration of OTHX; in data set [2] (setting [12]), 96.7% of the initial concentration of OTHX; in data set [2] (setting [13]) it was 91.0% of the initial concentration of OTHX; in data set [2] (setting [14]), 83.1% of the initial concentration of OTHX. For the same compound, the “Concentration of OTHX” value is recorded as 74.8% of the initial concentration of OTHX in data set [2] (setting [15]); 63.2% of the initial concentration of OTHX in data set [2] (setting [16]); 44.8% of the initial concentration of OTHX in data set [2] (setting [17]); 33.5% of the initial concentration of OTHX in data set [2] (setting [18]); 13.7% of the initial concentration of OTHX in data set [2] (setting [19]); 0.4% of the initial concentration of OTHX in data set [2] (setting [20]). Besides, the “Concentration of secondary degradation product CHD” value in data set [2] (setting [3]), in data set [2] (setting [4]), in data set [2] (setting [5]), in data set [2] (setting [6]), in data set [2] (setting [7]) and in data set [2] (setting [8]) was 0.0% of the initial concentration of OTHX each time. The “Concentration of secondary degradation product CHD” value in data set [2] (setting [9]) was 0.0% of the initial concentration of OTHX; in data set [2] (setting [10]), 0.0% of the initial concentration of OTHX; in data set [2] (setting [11]), 0.0% of the initial concentration of OTHX; in data set [2] (setting [12]) it was 0.0% of the initial concentration of OTHX; in data set [2] (setting [13]) it was 0.7% of the initial concentration of OTHX; in data set [2] (setting [14]), 0.0% of the initial concentration of OTHX. For the same compound, the “Concentration of secondary degradation product CHD” value is 7.7% of the initial concentration of OTHX in data set [2] (setting [15]); 9.7% of the initial concentration of OTHX in data set [2] (setting [16]); 25.2% of the initial concentration of OTHX in data set [2] (setting [17]); 22.2% of the initial concentration of OTHX in data set [2] (setting [18]); 21.5% of the initial concentration of OTHX in data set [2] (setting [19]); 32.8% of the initial concentration of OTHX in data set [2] (setting [20]). Also, the “Concentration of secondary degradation product TSA” value in data set [2] (setting [3]), in data set [2] (setting [4]), in data set [2] (setting [5]), in data set [2] (setting [6]), in data set [2] (setting [7]) and in data set [2] (setting [8]) was 0.0% of the initial concentration of OTHX throughout. The “Concentration of secondary degradation product TSA” value in data set [2] (setting [9]) is recorded as 0.2% of the initial concentration of OTHX; in data set [2] (setting [10]), 0.0% of the initial concentration of OTHX; in data set [2] (setting [11]), 0.0% of the initial concentration of OTHX; in data set [2] (setting [12]), 1.4% of the initial concentration of OTHX; in data set [2] (setting [13]), 1.9% of the initial concentration of OTHX; in data set [2] (setting [14]) it was 0.0% of the initial concentration of OTHX. The “Concentration of secondary degradation product TSA” value in data set [2] (setting [15]) is 13.0% of the initial concentration of OTHX; in data set [2] (setting [16]) it was 20.2% of the initial concentration of OTHX; in data set [2] (setting [17]) it was 36.4% of the initial concentration of OTHX; in data set [2] (setting [18]) it was 38.6% of the initial concentration of OTHX; in data set [2] (setting [19]), 49.1% of the initial concentration of OTHX; in data set [2] (setting [20]) it was 66.4% of the initial concentration of OTHX.
For `O=C1CCCC(=O)C1C(=O)c1ccc(C(F)(F)F)cc1[N+](=O)[O-]` [Start material, 2-(2-nitro-4-trifluoromethylbenzoyl)-1,3-cyclohexanedione], in data set [1], the “Particle size diameter d10” value was found to be 20.50 microns, the “Particle size diameter d20” value stood at 33.10 microns, the “Particle size diameter d50” value was 60.01 microns and the “Particle size diameter d80” value is given as 94.42 microns. In addition, in data set [1], the “Particle size diameter d90” value is given as 115.11 microns.
